Measured values reported in patent publication US8729312B2, “Derivatives of novel peroxides, method of preparation thereof and use thereof in human medicine as well as in cosmetics for the treatment or prevention of acne” (Galderma Research & Development, priority 2009, dated 2014).
In brackets after ≈: the same amount, converted by molar mass. Several values for one entry are separate records, joined by “and”; a condition that tells them apart may be missing. Equal values may be shown once.

Legend:
TPA-induced ear oedema = experiment: Anti-inflammatory activity after a single topical administration in TPA-induced ear oedema; assay type: in vivo, mouse; settings: for Inhibition vs TPA (%) / Ear oedema Mean / anti-inflammatory effect (conclusion in words): single topical application; for Inhibition vs TPA (%): T6h; for Ear oedema Mean: mouse ear thickness at T6h; for ranking compared to BPO at 5%: compound at 5%
Experimental: the aim is to evaluate the anti-inflammatory activity of the peroxides by measuring the thickness of mouse ear after TPA topical application. The anti-inflammatory activity is defined as a inhibition percentage of the TAP-induced ear oedema.
An oedema was induced by a single topical application of 20 μl of TPA dissolved in acetone at 0.01%.
Then a single topical application of tested compounds dissolved in TPA solution.
Ear thickness was measured at T6h.
Results are expressed in percentages based on the inhibition on the oedema induced by the TPA application.
Benzoyl peroxide (BPO) was tested 2 times as a reference peroxide.

P. acnes CIP53.117 = experiment: Minimum inhibitory concentration (MIC) on Propionibacterium acnes, dilution in liquid medium; assay type: cell-based; settings: strain CIP53.117, anaerobic, 36° C., minimum 72 h, range 2.5 mg/L to 1280 mg/L
Excerpt: (§1) the aim is to evaluate the anti-bacterial activity of the peroxides by measuring the minimum inhibitory concentration (MIC). The MIC is defined as the lowest concentration of product capable of inhibiting all visible growth.
(§2) The sensitivity of the products is investigated on two strains from the Pasteur Institute collection (CIP) of Propionibacterium acnes (P. acnes): • P. acnes CIP53.117, equivalent to ATCC6919, origin: facial acne lesion (1920), source CRBIP, Pasteur Institute, Paris • P. acnes CIPA179, origin: sebaceous gland (1946), source CRBIP, Pasteur Institute, Paris Tests on the Products:
(§3) The products are dissolved at 1280 mg/L in a mixture of absolute ethanol/sterile Tween 80/sterile Wilkins Chalgren broth ([…]). The dilution ranges used are an adaptation of the method described by the CLSI for methods of dilution in liquid medium. The range consists of 10 concentrations from 2.5 mg/L to 1280 mg/L at intervals of ratio 2.
(§4) The suspension of P. acnes is prepared in Wilkins Chalgren broth and calibrated at an optical density of about 0.4 at wavelength of 525 nm. It is then diluted to 1/10 in Wilkins Chalgren broth and then put in the test cupules to obtain a final suspension of about 10^5-10^6 CFU/mL in each test cupule.
(§5) The solutions of the test products are distributed on a 96-well microplate and incubated at 36° C.±2° C. under anaerobic atmosphere for a minimum of 72 h. The first cupule for which there is no growth visible to the naked eye is regarded as the MIC.

P. acnes CIPA179 = experiment: as above; assay type: cell-based; settings: strain CIPA179, anaerobic, 36° C., minimum 72 h, range 2.5 mg/L to 1280 mg/L
Excerpt: as §1, §2, §3, §4, §5

[1] = TPA-induced ear oedema mouse model

Row | Structure (SMILES) | Inhibition vs TPA (%) (TPA-induced ear oedema; compound 5% in TPA 0.01%) | Ear oedema Mean (TPA-induced ear oedema; compound 5% in TPA 0.01%) | MIC (P. acnes CIP53.117; Cutibacterium acnes) | MIC (P. acnes CIPA179; Cutibacterium acnes) | Inhibition vs TPA (%) (TPA-induced ear oedema; compound 1% in TPA 0.01%) | Ear oedema Mean (TPA-induced ear oedema; compound 1% in TPA 0.01%) | Inhibition vs TPA (%) (TPA-induced ear oedema; compound 2.5% in TPA 0.01%) | Ear oedema Mean (TPA-induced ear oedema; compound 2.5% in TPA 0.01%) | ranking compared to BPO at 5% (TPA-induced ear oedema; [1]) | anti-inflammatory effect (conclusion in words) (TPA-induced ear oedema; [1]) | MIC (minimum inhibitory concentration) (P. acnes CIP53.117) | MIC (minimum inhibitory concentration) (P. acnes CIPA179) | ranking of Ex n°1 against Ex n°2 (TPA-induced ear oedema; both at 5%, TPA-induced ear oedema mouse model)
1 | O=C(OOC(=O)c1ccccc1)c1ccccc1 [BPO, Benzoyl peroxide, reference compound] | 21.4% and 27.8% | 17.60 and 20.80 |  |  |  |  |  |  |  |  |  |  | 
2 | CC(=O)OCOc1ccccc1C(=O)OOC(=O)c1ccccc1 [Example 2, (2-acetoxymethoxy-benzoyl)benzoyl peroxide] | 71.7% | 7.20 | 160 µg/mL (≈ 484 µM) | 80 µg/mL (≈ 242 µM) | 19.7% | 20.40 | 42.5% | 14.60 | superior compared to BPO 5% | moderate anti-inflammatory effect |  |  | 
3 | CC(=O)OCOc1ccccc1C(=O)OOC(=O)c1ccccc1OCOC(C)=O [Example 1, bis(2-acetoxymethoxy)-benzoyl peroxide] | 81.9% | 4.60 |  |  | 45.7% | 13.80 | 74.8% | 6.40 | superior compared to BPO 5% | strong dose-dependent anti-inflammatory effect | 320 µg/mL (≈ 765 µM) | 320 µg/mL (≈ 765 µM) | slightly better than Ex n°2 at 5%
